Experimental data reported in ChEMBL document CHEMBL1201862, “PubChem BioAssay data set” (2004).
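Compound exposure: 48 hours, 5 concentrations, 96-well plates. At the GI50, growth is halved.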 Activity calls are given as the source filed them. Rule as the data show it: active = GI50 up to about 1.1 µM and inactive = higher.

Columns and labels:
Assay in all cases: NCI anticancer screen, dose series, 48 h
K562 = system: K562
HCT-116 = system: HCT-116
COLO 205 = system: COLO 205
SF-268 = system: SF-268
TK-10 = system: TK-10
OVCAR-3 = system: OVCAR-3
EKVX = system: EKVX
MCF7 = system: MCF7
T47D = system: T47D
M14 = system: M14
CCRF-CEM = system: CCRF-CEM
RPMI-8226 = system: RPMI-8226
PC-3 = system: PC-3
NCI-H23 = system: NCI-H23
MDA-MB-435 = system: MDA-MB-435
ACHN = system: ACHN
HOP-62 = system: HOP-62
A549 = system: A549
SF-295 = system: SF-295
RXF 393 = system: RXF 393
KM12 = system: KM12
SN12C = system: SN12C
A498 = system: A498
SK-OV-3 = system: SK-OV-3
U-251 = system: U-251
Hs-578T = system: Hs-578T
UO-31 = system: UO-31
UACC-257 = system: UACC-257
SNB-75 = system: SNB-75
CAKI-1 = system: CAKI-1
DU-145 = system: DU-145
SK-MEL-28 = system: SK-MEL-28
SW-620 = system: SW-620
SNB-19 = system: SNB-19
OVCAR-5 = system: OVCAR-5
SR = system: SR
SK-MEL-2 = system: SK-MEL-2
HL-60 = system: HL-60
NCI-H522 = system: NCI-H522
MDA-MB-231 = system: MDA-MB-231
MDA-N = system: MDA-N
HT-29 = system: HT-29
HCC 2998 = system: HCC 2998
HCT-15 = system: HCT-15
SK-MEL-5 = system: SK-MEL-5
BT-549 = system: BT-549
NCI/ADR-RES = system: NCI/ADR-RES
NCI-H226 = system: NCI-H226
NCI-H460 = system: NCI-H460
OVCAR-4 = system: OVCAR-4
Malme-3M = system: Malme-3M
SF-539 = system: SF-539
MOLT-4 = system: MOLT-4
UACC-62 = system: UACC-62
786-0 = system: 786-0
IGROV-1 = system: IGROV-1
OVCAR-8 = system: OVCAR-8
LOX IMVI = system: LOX IMVI

For `CCOC(=O)CCC(NC(=O)Cc1ccc(Oc2nc3ccccc3nc2-c2ccccc2)cc1)C(=O)OCC` (centres undefined), the GI50 (K562) was 63.2 µM (inactive), the GI50 (HCT-116) was > 100 µM (inactive) and the GI50 (COLO 205) was > 100 µM (inactive). The GI50 (SF-268) was 27 µM (inactive), the GI50 (TK-10) was 96.4 µM (inactive) and the GI50 (OVCAR-3) was 96.8 µM (inactive). The GI50 (EKVX) was > 100 µM (inactive), the GI50 (MCF7) was 91 µM (inactive) and the GI50 (T47D) was 24.9 µM (inactive). For the same compound, the GI50 (M14) was > 100 µM (inactive), the GI50 (CCRF-CEM) was > 100 µM (inactive) and the GI50 (RPMI-8226) was > 100 µM (inactive). The GI50 (PC-3) was 41.9 µM (inactive), the GI50 (NCI-H23) was > 100 µM (inactive) and the GI50 (MDA-MB-435) was > 100 µM (inactive). For the same compound, the GI50 (ACHN) was > 100 µM (inactive), the GI50 (HOP-62) was 45.6 µM (inactive) and the GI50 (A549) was > 100 µM (inactive). The GI50 (SF-295) was 67.1 µM (inactive), the GI50 (RXF 393) was 37.6 µM (inactive) and the GI50 (KM12) was > 100 µM (inactive). The GI50 (SN12C) was > 100 µM (inactive), the GI50 (A498) was > 100 µM (inactive) and the GI50 (SK-OV-3) was 58.6 µM (inactive). The GI50 (U-251) was 75.9 µM (inactive), the GI50 (Hs-578T) was 34.8 µM (inactive) and the GI50 (UO-31) was 52.5 µM (inactive). For the same compound, the GI50 (UACC-257) was > 100 µM (inactive), the GI50 (SNB-75) was 37.8 µM (inactive) and the GI50 (CAKI-1) was > 100 µM (inactive). The GI50 (DU-145) was > 100 µM (inactive), the GI50 (SK-MEL-28) was > 100 µM (inactive) and the GI50 (SW-620) was > 100 µM (inactive). The GI50 (SNB-19) was 50.6 µM (inactive), the GI50 (OVCAR-5) was > 100 µM (inactive) and the GI50 (SR) was > 100 µM (inactive). The GI50 (SK-MEL-2) was > 100 µM (inactive), the GI50 (HL-60) was > 100 µM (inactive) and the GI50 (NCI-H522) was 34.6 µM (inactive). For the same compound, the GI50 (MDA-MB-231) was > 100 µM (inactive), the GI50 (MDA-N) was > 100 µM (inactive) and the GI50 (HT-29) was > 100 µM (inactive). The GI50 (HCC 2998) was > 100 µM (inactive), the GI50 (HCT-15) was > 100 µM and the GI50 (SK-MEL-5) was 57.9 µM (inactive). For the same compound, the GI50 (BT-549) was > 100 µM (inactive), the GI50 (NCI/ADR-RES) was 70.8 µM (inactive) and the GI50 (NCI-H226) was 19.5 µM (inactive). The GI50 (NCI-H460) was > 100 µM (inactive), the GI50 (OVCAR-4) was 56.4 µM (inactive) and the GI50 (Malme-3M) was > 100 µM (inactive). The GI50 (SF-539) was 29.9 µM (inactive), the GI50 (MOLT-4) was > 100 µM (inactive) and the GI50 (UACC-62) was > 100 µM (inactive). The GI50 (786-0) was 35.5 µM (inactive).
With `COc1ccc(OC)c(-c2nc(O)c3ccccc3n2)c1` the GI50 (K562) was > 100 µM (inactive), the GI50 (HCT-116) was > 100 µM (inactive) and the GI50 (COLO 205) was > 100 µM (inactive). For the same compound, the GI50 (SF-268) was > 100 µM (inactive), the GI50 (IGROV-1) was > 100 µM (inactive) and the GI50 (OVCAR-3) was > 100 µM (inactive). The GI50 (EKVX) was > 100 µM (inactive), the GI50 (MCF7) was > 100 µM (inactive) and the GI50 (T47D) was 25.6 µM (inactive). The GI50 (M14) was > 100 µM (inactive), the GI50 (CCRF-CEM) was > 100 µM (inactive) and the GI50 (RPMI-8226) was 78.3 µM (inactive). For the same compound, the GI50 (PC-3) was > 100 µM (inactive), the GI50 (NCI-H23) was > 100 µM (inactive) and the GI50 (MDA-MB-435) was > 100 µM (inactive). For the same compound, the GI50 (ACHN) was > 100 µM (inactive), the GI50 (HOP-62) was > 100 µM (inactive) and the GI50 (A549) was > 100 µM (inactive). The GI50 (SF-295) was > 100 µM (inactive), the GI50 (RXF 393) was 15 µM (inactive) and the GI50 (KM12) was 42.4 µM (inactive). For the same compound, the GI50 (SN12C) was > 100 µM (inactive), the GI50 (A498) was > 100 µM (inactive) and the GI50 (SK-OV-3) was > 100 µM (inactive). The GI50 (U-251) was > 100 µM (inactive), the GI50 (Hs-578T) was > 100 µM (inactive) and the GI50 (UO-31) was > 100 µM (inactive). The GI50 (UACC-257) was > 100 µM (inactive), the GI50 (SNB-75) was > 100 µM (inactive) and the GI50 (CAKI-1) was > 100 µM (inactive). The GI50 (DU-145) was > 100 µM (inactive), the GI50 (SW-620) was > 100 µM (inactive) and the GI50 (SNB-19) was > 100 µM (inactive). For the same compound, the GI50 (OVCAR-5) was > 100 µM (inactive), the GI50 (SR) was 67 µM (inactive) and the GI50 (SK-MEL-2) was > 100 µM (inactive). The GI50 (MDA-MB-231) was > 100 µM (inactive), the GI50 (MDA-N) was > 100 µM (inactive) and the GI50 (HT-29) was > 100 µM (inactive). The GI50 (HCC 2998) was > 100 µM (inactive), the GI50 (HCT-15) was > 100 µM and the GI50 (SK-MEL-5) was 74 µM (inactive). The GI50 (BT-549) was > 100 µM (inactive), the GI50 (NCI/ADR-RES) was 98.4 µM (inactive) and the GI50 (NCI-H226) was > 100 µM (inactive). For the same compound, the GI50 (NCI-H460) was > 100 µM (inactive), the GI50 (OVCAR-4) was > 100 µM (inactive) and the GI50 (Malme-3M) was > 100 µM (inactive). The GI50 (SF-539) was 50.7 µM (inactive), the GI50 (OVCAR-8) was > 100 µM (inactive) and the GI50 (MOLT-4) was 40.6 µM (inactive). The GI50 (UACC-62) was 66.8 µM (inactive) and the GI50 (786-0) was > 100 µM (inactive).
With `C=CCCC1(CC(Sc2ccccc2)P(=O)(c2ccccc2)c2ccccc2)OCCO1` (centres undefined) the GI50 (K562) was > 10 µM (inactive), the GI50 (HCT-116) was > 10 µM (inactive) and the GI50 (COLO 205) was > 10 µM (inactive). The GI50 (SF-268) was > 10 µM (inactive), the GI50 (TK-10) was > 10 µM (inactive) and the GI50 (IGROV-1) was > 10 µM (inactive). The GI50 (OVCAR-3) was > 10 µM (inactive), the GI50 (EKVX) was > 10 µM (inactive) and the GI50 (MCF7) was > 10 µM (inactive). For the same compound, the GI50 (T47D) was > 10 µM (inactive), the GI50 (M14) was > 10 µM (inactive) and the GI50 (CCRF-CEM) was > 10 µM (inactive). The GI50 (RPMI-8226) was > 10 µM (inactive), the GI50 (PC-3) was > 10 µM (inactive) and the GI50 (NCI-H23) was > 10 µM (inactive). The GI50 (MDA-MB-435) was > 10 µM (inactive), the GI50 (ACHN) was > 10 µM (inactive) and the GI50 (HOP-62) was > 10 µM (inactive). For the same compound, the GI50 (A549) was > 10 µM (inactive), the GI50 (SF-295) was > 10 µM (inactive) and the GI50 (RXF 393) was > 10 µM (inactive). The GI50 (KM12) was > 10 µM (inactive), the GI50 (SN12C) was > 10 µM (inactive) and the GI50 (A498) was > 10 µM (inactive). For the same compound, the GI50 (SK-OV-3) was > 10 µM (inactive), the GI50 (U-251) was > 10 µM (inactive) and the GI50 (Hs-578T) was > 10 µM (inactive). For the same compound, the GI50 (UO-31) was > 10 µM (inactive), the GI50 (UACC-257) was > 10 µM (inactive) and the GI50 (CAKI-1) was > 10 µM (inactive). The GI50 (DU-145) was > 10 µM (inactive), the GI50 (SK-MEL-28) was > 10 µM (inactive) and the GI50 (SW-620) was > 10 µM (inactive). For the same compound, the GI50 (SNB-19) was > 10 µM (inactive), the GI50 (OVCAR-5) was > 10 µM (inactive) and the GI50 (SR) was > 10 µM (inactive). For the same compound, the GI50 (SK-MEL-2) was > 10 µM (inactive), the GI50 (HL-60) was > 10 µM (inactive) and the GI50 (MDA-MB-231) was > 10 µM (inactive). The GI50 (MDA-N) was > 10 µM (inactive), the GI50 (HT-29) was > 10 µM (inactive) and the GI50 (LOX IMVI) was > 10 µM (inactive). The GI50 (HCC 2998) was > 10 µM (inactive), the GI50 (HCT-15) was > 10 µM and the GI50 (SK-MEL-5) was > 10 µM (inactive). The GI50 (BT-549) was > 10 µM (inactive), the GI50 (NCI/ADR-RES) was > 10 µM (inactive) and the GI50 (NCI-H226) was > 10 µM (inactive). For the same compound, the GI50 (NCI-H460) was > 10 µM (inactive), the GI50 (OVCAR-4) was > 10 µM (inactive) and the GI50 (Malme-3M) was > 10 µM (inactive). The GI50 (SF-539) was > 10 µM (inactive), the GI50 (OVCAR-8) was > 10 µM (inactive) and the GI50 (MOLT-4) was > 10 µM (inactive). The GI50 (UACC-62) was > 10 µM (inactive) and the GI50 (786-0) was > 10 µM (inactive).
